Series [1] can be described thus: Open circuit voltage between working electrode and reference electrode. In kind it is physicochemical. The following applies: 10 mM PBS buffer. The method, then: The open circuit voltage between the WE and the RE also was measured for the mediator composition of FIGS. 1A and 1B. The open circuit voltage is a measure of the redox state of the mediator.
The open circuit voltage between the WE and the RE also was measured for the compound having general formula (III), where X is bromine.

The nature of series [2]: Voltammetric scan of the mediator: output current in response to input potential (glassy carbon WE, Ag/AgCl RE, platinum CE). The settings on record: for redox potential: mediator 1 mg/mL. In kind it is physicochemical. From the text:
FIGS. 1A and 1B depict graphs illustrating output currents from mediator reduction in response to an input potential. The mediator was a composition including a 3:2 molar mixture of a first compound having the general formula (I), and a second compound having the general formula (II), where X is bromine and each compound is present as the disodium salt. A 5 mm glassy carbon electrode served as a working electrode (WE), Ag/AgCl as a reference electrode (RE), and platinum gauAge as a counter electrode (CE). In FIG. 1A, the mediator composition was present at a concentration of 1 mg/mL in a mixture containing 10 mM PBS buffer (pH 7.4), and the input potential was scanned between −200 mV and 200 mV vs. Ag/AgCl. In FIG. 1B, the mediator composition was present at a concentration of 1 mg/mL in a mixture containing 100 mM PBS (pH 7.0) and 100 mM NaCl buffer solution, and the input potential was scanned between −100 mV and 200 mV vs. Ag/AgCl. Referring to FIG. 1B, when the scan rate was less than 50 mV/s, the oxidative and reductive peak separation was around 30-40 mV. […] The redox potential of the mediator composition of FIGS. 1A and 1B was about −3 mV vs. Ag/AgCl in the 10 mM PBS buffer (pH 7.4), and was about 40 mV vs. Ag/AgCl in the mixture of 100 mM PBS (pH 7.0) and 100 mM NaCl buffer. These redox potentials are similar to that of the conventional mediator (E)-2-(3H-phenothiaAgine-3-ylideneamino)benAgene-1,4-disulfonic acid (Structure A), which is −50 mV vs. Ag/AgCl. FIG. 5A and FIG. 5B depict graphs illustrating output currents from mediator reduction in response to an input potential. The mediator was a compound having general formula (III), where X is bromine. A 5 mm glassy carbon electrode served as a WE, Ag/AgCl as a RE, and platinum gauAge as a CE. In FIG. 5A, the mediator was present at a concentration of 1 mg/mL in a mixture containing 10 mM PBS buffer (pH 7.4), and the input potential was scanned between −200 mV and 200 mV vs. Ag/AgCl. […]

For a further series, the system named is glucose dehydrogenase. Nature of the series: Output current from mediator in a mixture containing glucose and glucose dehydrogenase. In kind it is biochemical. The settings on record: mediator 3 mg/mL, 10 mM PBS buffer (pH 7.4), input potential 100 mV vs. Ag/AgCl, glucose 0 to 1.2 mM. The method, then: FIG. 2 depicts a graph illustrating output currents from mediator oxidation in response to an input potential when the mediator is in a mixture containing glucose and glucose dehydrogenase. The mediator was the composition used in FIGS. 1A and 1B. A 5 mm glassy carbon electrode served as a WE, Ag/AgCl as a RE, and platinum gauAge as a CE. The composition was present at a concentration of 2 mg/mL in a mixture containing 10 mM PBS buffer (pH 7.4), and the input potential was 100 mV vs. Ag/AgCl. […] Thus, the composition may be used as a mediator for the redox reaction correlating the glucose concentration in a sample with an electrical signal. Referring to FIG. 2, a compound having general formula (III), where X is bromine, can be used as a mediator for the redox reaction correlating the glucose concentration of a sample with an electrical signal. A 5 mm glassy carbon electrode served as a WE, Ag/AgCl as a RE, and platinum gauAge as a CE. The mediator was present at a concentration of 3 mg/mL in a mixture containing 10 mM PBS buffer (pH 7.4), and the input potential was 100 mV vs. Ag/AgCl. […] Thus, the composition may be used as a mediator for the redox reaction correlating the glucose concentration in a sample with an electrical signal.

For series [3] the following is noted: conventional mediator, buffer not stated; cited from earlier work.

Read-outs that look alike come from different tables or passages of the source.

`O=S(=O)(O)c1ccc(S(=O)(=O)O)c(N=c2cc3sc4ccccc4nc-3cc2OCCCCCCCCBr)c1` [2-(2-(8-bromooctanoxy)-3H-phenothiaAgin-3-ylideneamino)benAgene-1,4-disulfonic acid] had an open circuit voltage in series [1] of 111 mV vs. Ag/AgCl. The redox potential result in series [2] (10 mM PBS buffer (pH 7.4)) was “about 3 mV vs. Ag/AgCl”; in series [2] (mixture of 100 mM PBS (pH 7.0) and 100 mM NaCl buffer), “about 15 mV vs. Ag/AgCl”. The “oxidative and reductive peak separation” value in series [2] (scan rate less than 50 mV/s, 100 mM PBS (pH 7.0) and 100 mM NaCl buffer, 1 mg/mL) is given as 30-40 mV. For the same compound, in the series with glucose dehydrogenase, the “output current vs glucose concentration” value was “output current increased as the glucose concentration increased from 0 to 1.2 mM”.

Turning to `O=S(=O)(O)c1ccc(S(=O)(=O)O)c(/N=c2\ccc3nc4ccccc4sc-3c2)c1` [Structure A, (E)-2-(3H-phenothiaAgine-3-ylideneamino)benAgene-1,4-disulfonic acid], the redox potential in series [3] was −50 mV vs. Ag/AgCl.

The values above are taken from US20100300896A1, “Redox Molecules And Methods Of Making The Same” (BAYER HEALTHCARE LLC, priority 2009, published 2010).
